From patent US11981675B1, “Pyrrolo[3,2-C]quinoline-2,3-dione compounds as CK2 inhibitors” (KING FAISAL UNIVERSITY, priority 2023, dated 2024)

What was measured:
HL60 (leukemia) = test: In vitro cytotoxic activity assay (MTT), HL60; format: cell-based; conditions: Homo sapiens, HL-60; HL60 (leukemia) cells, exposed for 96 hours; read-out: Cytotoxicity activity IC50 (50% inhibition of cell proliferation)
Procedure: (§1) Compounds 1-16 were screened for their in vitro cytotoxic activity utilizing a 3-(4,5-dimethyl-thiazol-2-yl)-2,5-diphenyltetrazolium bromide (MTT) assay against selected cancer human cell lines consisting of PC3 (prostate), HCT116 (colon), A375 (melanoma), H1299 (lung), MIAPaCa-2 (pancreas), HL60 (leukemia), MCF7 (breast), MDA-MB-231 (breast) (T. Mosmann, J. Immunol. Meth., 1983, 65, 55-63). The cells were cultured at 37° C. in RMPI1640 medium supplemented with 10% fetal bovine serum, 50 IU/mL penicillin, and 50 μg/mL streptomycin in a 5% CO2 incubator. All cells were sub-cultured 3 times/week by trypsinisation. Viable cells were seeded and allowed to adhere for 12 h before a test drug was added in 96-well plates at an initial density of 1.0×10^5 cells/mL. Tumor cell lines were separately exposed to various concentrations of the tested compounds followed by incubation at a temperature of 37° C. during 96 hours inside a medium of fresh RMPI 1640. Cells were subsequently incubated at 37° C. using MTT at 0.5 mg/mL during 4 hours. After removal of supernatant, formazan crystals were dissolved in isopropanol and the optical density was measured at 570 nm. CX-4945 was used as a positive control.

[1] = molecular target: T1, recombinant human CK2 (RRββ-holoenzyme) (Homo sapiens, UniProt P68400); test: CK2 Kinase Assay (radiometric, [γ-33P] ATP); format: biochemical; conditions: final ATP concentration 15 μM, 10 min at 30° C., eight concentrations; read-out: protein kinase CK2 activity IC50
T1 construct: purchased Millipore
Procedure: CK2 Kinase Assay was conducted using the protocol as described in Pierre F. et al; J. Med. Chem. 2011, 54, 635-654. The tested compounds in aqueous solution were added at a volume of 10 μL to a reaction mixture comprising 10 μL of assay dilution buffer (ADB; 20 mM MOPS, pH 7.2, 25 mM β-glycerol phosphate, 5 mM EGTA, 1 mM sodium orthovanadate, and 1 mM dithiothreitol), 10 μL of substrate peptide (RRRDDDSDDD, dissolved in ADB at a concentration of 1 mM), 10 μL of recombinant human CK2 (RRββ-holoenzyme, 25 ng dissolved in ADB; Millipore). Reactions were initiated by the addition of 10 μL of ATP solution (90% 75 mM MgCl2, 75 μM ATP (final ATP concentration:15 μM) dissolved in ADB; 10% [γ-33P] ATP (stock 1 mCi/100 μL; 3000 Ci/mmol (Perkin-Elmer) and maintained for 10 min at 30° C. The reactions were quenched with 100 μL of 0.75% phosphoric acid and then transferred to and filtered through a phosphor cellulose filter plate (Millipore). After washing each well five times with 0.75% phosphoric acid, the plate was dried under vacuum for 5 min and, following the addition of 15 μL of scintillation fluid to each well, the residual radioactivity was measured using a Wallac luminescence counter. The IC50 values were derived from eight concentrations of test inhibitors.

MDA-MB-231 (breast) = test: In vitro cytotoxic activity assay (MTT), MDA-MB-231; format: cell-based; conditions: Homo sapiens; MDA-MB-231 (breast) cells, exposed for 96 hours; read-out: Cytotoxicity activity IC50 (50% inhibition of cell proliferation)
Procedure: as §1

MCF7 (breast) = test: In vitro cytotoxic activity assay (MTT), MCF7; format: cell-based; conditions: Homo sapiens; MCF7 (breast) cells, exposed for 96 hours; read-out: Cytotoxicity activity IC50 (50% inhibition of cell proliferation)
Procedure: as §1

H1299 (lung) = test: In vitro cytotoxic activity assay (MTT), H1299; format: cell-based; conditions: Homo sapiens, NCI-H1299; H1299 (lung) cells, exposed for 96 hours; read-out: Cytotoxicity activity IC50 (50% inhibition of cell proliferation)
Procedure: as §1

MIAPaCa-2 (pancreas) = test: In vitro cytotoxic activity assay (MTT), MIAPaCa-2; format: cell-based; conditions: Homo sapiens, MIA PaCa-2; MIAPaCa-2 (pancreas) cells, exposed for 96 hours; read-out: Cytotoxicity activity IC50 (50% inhibition of cell proliferation)
Procedure: as §1

A375 (melanoma) = test: In vitro cytotoxic activity assay (MTT), A375; format: cell-based; conditions: Homo sapiens, A-375; A375 (melanoma) cells, exposed for 96 hours; read-out: Cytotoxicity activity IC50 (50% inhibition of cell proliferation)
Procedure: as §1

HCT116 (colon) = test: In vitro cytotoxic activity assay (MTT), HCT116; format: cell-based; conditions: Homo sapiens, HCT-116; HCT116 (colon) cells, exposed for 96 hours; read-out: Cytotoxicity activity IC50 (50% inhibition of cell proliferation)
Procedure: as §1

PC3 (prostate) = test: In vitro cytotoxic activity assay (MTT), PC3; format: cell-based; conditions: Homo sapiens, Prostate cell; PC3 (prostate) cells, exposed for 96 hours; read-out: Cytotoxicity activity IC50 (50% inhibition of cell proliferation)
Procedure: as §1

T1 sequence (P68400 whole entry): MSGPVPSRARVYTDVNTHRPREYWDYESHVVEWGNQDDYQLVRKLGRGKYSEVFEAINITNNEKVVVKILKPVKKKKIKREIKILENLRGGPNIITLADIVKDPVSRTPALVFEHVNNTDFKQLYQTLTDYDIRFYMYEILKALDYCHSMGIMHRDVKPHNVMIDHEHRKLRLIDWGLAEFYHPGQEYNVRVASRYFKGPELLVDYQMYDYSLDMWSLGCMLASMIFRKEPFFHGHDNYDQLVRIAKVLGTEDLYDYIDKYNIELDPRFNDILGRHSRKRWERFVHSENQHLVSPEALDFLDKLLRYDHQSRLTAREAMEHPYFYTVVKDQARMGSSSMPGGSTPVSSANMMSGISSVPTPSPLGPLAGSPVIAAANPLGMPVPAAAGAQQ
T1 sequence (P67870 whole entry partner): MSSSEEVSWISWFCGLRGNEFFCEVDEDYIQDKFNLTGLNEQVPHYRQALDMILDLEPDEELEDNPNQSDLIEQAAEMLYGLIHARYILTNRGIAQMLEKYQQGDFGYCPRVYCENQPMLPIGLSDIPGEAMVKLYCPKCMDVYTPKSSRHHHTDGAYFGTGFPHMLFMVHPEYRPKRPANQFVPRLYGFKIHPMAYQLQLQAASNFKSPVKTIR

IC50 [1]: 22 nM
Compound: O=C1Nc2c(c(Nc3cccc(Cl)c3)nc3cc(C(=O)O)ccc23)C1=O [Compound (1), 4-((3-chlorophenyl)amino)-2,3-dioxo-2,3-dihydro-1H-pyrrolo[3,2-c]quinoline-7-carboxylic acid]
IC50 (HL60 (leukemia)): 3600 nM | IC50 (MDA-MB-231 (breast)): 4100 nM | IC50 (MCF7 (breast)): 5200 nM | IC50 (H1299 (lung)): 1900 nM | IC50 (MIAPaCa-2 (pancreas)): 900 nM | IC50 (A375 (melanoma)): 3200 nM | IC50 (HCT116 (colon)): 1600 nM | IC50 (PC3 (prostate)): 1300 nM
